Molecular target: wild type (WT) A/M2 protein (Influenza A virus, UniProt P0DOF5)
Assay: cell-based

Sequence of wild type (WT) A/M2 protein (P0DOF5 whole entry, looked up): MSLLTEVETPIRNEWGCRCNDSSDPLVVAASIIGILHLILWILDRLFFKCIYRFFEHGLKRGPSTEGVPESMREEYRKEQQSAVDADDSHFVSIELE

In the case of `CCCCNC(C)C12CC3CC(CC(C3)C1)C2` (centres unmarked) [Compound 5a, (1-Adamantan-1-yl-ethyl)-butyl-amine], the “M2 WT inhibitory activity relative to that of 4c” value (100 µM, 5a versus rimantadine dimer 4c) is reported as “approximately fourfold” and the inhibition at 100 µM (read-out: percentage inhibition of A/M2 current (WT)) is reported as 40%.
